Source: US10945983B2, “Oleocanthal isolation and cancer treatment” (Board of Supervisors for the University of Louisiana System, priority 2016, dated 2021)
Read-outs that look alike come from different tables or passages of the source.

How the values were obtained:
BT-474 human BC cells = settings: for BT-474 tumor weight inhibition vs vehicle: 3×/week, intraperitoneal, 60 days; for BT-474 tumor growth inhibition: 5×/week
Protocol: 5×10^6 cells/20 μL BT-474 human BC cells were sc inoculated into second mammary gland fat pad of athymic nude (Foxn1^nu/Foxn^1). […] Top panels show photographs of representative intact animal for each group. Bottom panels show photographs of excised primary tumor at experiment end.
Turning to FIGS. 28A-32, the HER2+ BC represents >15% of total BC cases with aggressive metastatic and highly resistant profile.

mTOR = mTOR (Homo sapiens, UniProt P42345); settings: read-out: IC50 mTOR enzymatic activity; cited from earlier work
BT-474 tumor recurrence = assay: HER2+/ER+ BT-474 recurrence after primary tumor surgical excision; settings: for recurrence tumor weight inhibition: additional 54 days after excision
Protocol: Female athymic nude mice used in previous experiment were anesthetized prior to the surgical excision procedure with ip ketamine/xylazine combination (100 mg/kg/15 mg/kg). 15-20 min after administering the anesthetic animal reflexes tested by gently tapping the hind legs with sterile syringe needle and finally their tumors were surgically excised and each wound was closed by one or two stitches. Ketoprofen, 1 mg/kg was used 12 hours before and 12 h after surgery for effective analgesia. Ophthalmic lubricant was used during the surgery to prevent corneal drying. Bupivicaine (0.25%, 1-2 drops), twice daily, was used topically at the excision wound site, local infiltration along surgery site during closure with a maximum dose of 2 mg/kg.

[1] = test system: MDA-MB-231/GFP human breast cancer cells; assay: Orthotopic TNBC xenograft model in athymic mice; type: in vivo, athymic nude mice; settings: intraperitoneal 5 mg/kg, 3× per week; previous experiments of the inventors
Protocol: MDA-MB-231/GFP human breast cancer cells were cultured and resuspended in serum-free DMEM medium (20 μl). After anesthesia, cell suspensions (1×10^6 cells/20 μl) were inoculated subcutaneously into the second mammary gland fat pad just beneath the nipple of each athymic nude mouse to generate orthotopic breast tumors. […] FIG. 20 is a line chart showing tumor size was evaluated periodically during treatment at indicated days postinoculation. Tumor volume (V) was calculated by V=L/2×W^2, where L was the length and W was the width of tumors. […]
Turning to FIGS. 20-23, in the current disclosure, as a future dietary candidate OC nano-emulsion oral in vivo antitumor efficacy was assessed using the same mouse model using MDA-MB-231/GFP human BC cells. […] The mice were monitored by measuring body weight, and observation of their physical behavior throughout the study. […]
MDA-MB-231/GFP human breast cancer cells were harvested, pelleted by centrifugation at 850×g for 5 minutes, and re-suspended in sterile serum-free DMEM medium (20 μL). […] The mice were monitored by measuring tumor volume, body weight, and clinical observation. Tumor volume (V) was calculated by V=L/2×W^2, where L was the length and W was the width of tumors. […]

TNBC MDA-MB-231 BC cells = assay: TNBC recurrence after neoadjuvant paclitaxel; type: in vivo; settings: 10 mg/kg oral daily
Description: (§1) The correlation between c-Met/HGF pathway and tumor resistance is documented. […] This was consistent with the OC c-Met inhibitory activity and previously shown growth and recurrence effects.

HER2+-ER+BT-474 BC cells = assay: BT-474 recurrence after neoadjuvant lapatinib regimen; type: in vivo, athymic nude mice; settings: OC 10 mg/kg, ip, 3×/week, additional 54 days after lapatinib 50 mg/kg for 60 days
Protocol: FIG. 36A is a photograph of representative animals of vehicle control group and two photographs showing circled tumor developed over the additional 54 days period. FIG. 36B is two photographs of representative animals that completed 60 days oral lapatinib 50 mg/kg group and two photographs of developed circled tumors after additional 54 days. FIG. 36C is two photographs of representative animals of 10 mg OC 1p, 3×/week group, and two photographs showing no tumor developed over the additional 54 days regimen.
as §1

SMILES | BT-474 tumor weight inhibition vs vehicle (BT-474 human BC cells; 5 mg/kg) | BT-474 tumor weight inhibition vs vehicle (BT-474 human BC cells; 10 mg/kg) | IC50 (mTOR) | recurrence tumor weight inhibition (BT-474 tumor recurrence; 10 mg/kg, ip, 3×/week) | tumor growth inhibition [1] | recurrence and chemoresistance after neoadjuvant paclitaxel (TNBC MDA-MB-231 BC cells) | tumor recurrence after lapatinib regimen (HER2+-ER+BT-474 BC cells) | BT-474 tumor growth inhibition (BT-474 human BC cells; 12.5 mg oral dose) | BT-474 tumor growth inhibition (BT-474 human BC cells; 50 mg oral dose) | recurrence tumor weight inhibition (BT-474 tumor recurrence; 50 mg/kg, 5×/week oral) | body weight (BT-474 tumor recurrence; lapatinib 50 mg/kg, additional 54 days)
C/C=C(/C=O)[C@@H](CC=O)CC(=O)OCCc1ccc(O)cc1 [OC, (-)-Oleocanthal] | 88.2% | 93.2% | 708 nM | 86.2% | 65% | effectively inhibited in vivo recurrence and reversed chemoresistance | inhibited the HER2+-ER+BT-474 BC cells recurrence |  |  |  | 
CS(=O)(=O)CCNCc1ccc(-c2ccc3ncnc(Nc4ccc(OCc5cccc(F)c5)c(Cl)c4)c3c2)o1 [lapatinib, reference compound] |  |  |  |  |  |  |  | 85.9% | 89.9% | 81.4% | significant weight decrease
